No end group written: not given here.
What was measured:
miR-21 [1] = experiment: Thermal denaturation assay (CD, Tm determination) of miR-21/peptide complexes; type: binding; conditions: for melting temperature (Tm) of miR-21 co-incubated with peptide: equimolar c=2 μM, ellipticity at λ=267 nm, miR-21 alone 51° C.
Description: A thermal denaturation assay was next used to further characterize the dsRNA binding abilities of our peptides. Typically employed in the study of nucleic acid complexes, thermal denaturation assays make use of the spectral changes resulting from complex unfolding as temperature is increased. Using circular dichroism (CD) spectroscopy as a readout, we measured the changes in ellipticity at λ=267 nm, the wavelength maxima associated with A-form dsRNA. In line with previous measurements, the mid-point of denaturation or melting temperature (Tm) associated with miR-21 is 51° C. (FIG. 2b and FIG. 2c). To assess the stability of peptide-dsRNA complexes, peptides were co-incubated with miR-21 at an equimolar concentration (c=2 μM) and measured analogously. […] Contrastingly, incubation with dimeric peptide 1^∘∘1 leads to a greater increase stabilization (Tm=56° C., FIG. 2b) which was also seen for peptide 2 (Tm=58° C., FIG. 2c). […] CD spectroscopy allows not only the measurement of thermal denaturation profiles but can also be used to compare the structural characteristics of biomolecular complexes. […]
Circular dichroism (CD) spectra were recorded with a Jasco J-1500 spectropolarimeter (Jasco) equipped with a programmable Peltier thermostat in a stoppered quartz cuvette (10 mm; Hellma). […] For each sample, 10 CD spectra were measured between 200 nm and 350 nm with continuous scan mode (1 mdeg sensitivity, 1.0 nm resolution, 1.0 nm bandwidth, 2 s integration time, 100 nm/min scan rate). […]
where θ=observed ellipticity/mdeg, c=DNA or RNA strand concentration/mol/L and l=path length/cm. Melting temperature (Tm) determination was conducted with the same instrumentation and sample preparation, where ellipticity (θ=267 nm) was measured by ramping the temperature from 15-90° C. […] Raw data were normalized as described above, and Tm-values were determined using the CDpal program before being plotted in Prism 5.0 (GraphPad).

miR-21 [2] = experiment: Stabilization Assay of miR-21 in fetal bovine serum; type: in vitro ADME; conditions: miR-21 9 μM, peptide 18 μM; for stabilizing effect on miR-21 in increasing FBS: 10 min at 37° C., FBS gradient
Protocol: The rapid degradation of RNA by nucleases in serum is one of the central challenges associated with the therapeutic use of RNA. Applicants were therefore interested whether peptide binding promotes RNA stability in serum. For this purpose, miR-21 was incubated with different concentrations of fetal bovine serum (FBS) at 37° C., followed by phenol/chloroform extraction and PAGE analysis (FIG. 14). […] Both is in line with their reduced affinity for miR-21 (FIGS. 12a and 12b). To investigate the time-dependence of RNA stability, a prolonged incubation of RNA in serum (27.5% FBS) was performed, and the remaining RNA visualized by native PAGE (FIG. 14d). Remarkably, even after 6 hours, miR-21 was still detectable in the presence of peptide 2^∘∘2, while in the absence of the peptide, RNA was fully degraded within 15 minutes in line with afore made observations. These findings highlight the potential of peptide 2^∘∘2 to strongly enhance the stability of dsRNA in serum.
RNA stabilization was investigated by incubation of peptide/RNA complexes with fetal bovine serum (FBS) (Thermo Fischer Scientific). Peptide/RNA complexes were formed as described above after which defined amounts of FBS were added (concentration(RNA)=9 μM, concentration(peptide)=18 μM, total volume 10 μL). For gradient stability assay FBS containing RNA solutions were incubated at 37° C. for 10 min and for time course analysis at room temperature with 27.5% FBS. After incubation, 10 μL of NaOAc (3 M), 1 μL Glycogen (Thermo Fischer Scientific), 1 μL Ribolock (Thermo Fischer Scientific) and ddH2O was added on ice to a total volume of 200 μL.
RNA was extracted twice with freshly prepared solution of phenol/chloroform (5:1, 2 mL). After ethanol precipitation (1 mL) of the aqueous phase RNA pallets were redissolved in 8 μL ddH2O and added 2 μL 6×BB and then loaded into a native PAGE gel and run with previously described conditions.

miR-21 [3] = experiment: Isothermal titration calorimetry (ITC); type: binding; conditions: for N-value (peptides per miR-21 duplex) / −TΔS (entropic penalty) / Kd: 30° C.; for Kd: 1×PBS
Protocol: To confirm RNA-binding, isothermal titration calorimetry (ITC) was used. […] For wt33 this is in line with applicants' previously reported observations.
Isothermal titration calorimetry (ITC) was conducted using a VP-ITC (MicroCal). Before measurement, annealed miR-21 and peptide samples were dissolved in 1×PBS and degassed using a ThermoVac and heated to 30° C. miR-21 (c=6-15 μM) was then transferred into the sample cell (1.8 mL) and peptides (c=86-305 μM) were transferred into the syringe (300 μL). 37 Injections per measurement were performed at 30° C. (8 μl injection volume, 3.2 s injection time, 180 s spacing, high feedback mode) with an initial delay of 60 s and a stirring speed of 310 rpm. Data were analyzed using the MicroCal LLC ITC software (Origin; OriginLab Corporation), the heat associated with each injection was calculated by integrating the area under the curve for each injection and then normalized to concentration. A ‘single set of identical binding sites’ model was used to fit the binding curves from which thermodynamic binding parameters (ΔG, ΔH, ΔS, N and Kd) were calculated.

miR-21 [4] = experiment: Electrophoretic mobility shift assay (EMSA) with miR-21; type: binding; conditions: c(RNA)=3 μM; for dsRNA binding in EMSA (band shift): c(peptide)=6 μM, 15% native PAGE
Description: With the desired peptides in hand, we first assessed their dsRNA-binding potential using an electrophoretic mobility shift assay (EMSA). Making use of non-denaturing conditions, EMSA allows to resolve biomolecular complexes by size and charge character.
WT33 was employed as comparative positive control for peptide binding while the double-stranded microRNA, miR-21, was chosen as a sample dsRNA target for this assay. Comprised of an 18 base pair (bp) duplex, miR-21 can accommodate the binding of two wt33 monomers, similar to siRNA duplexes. Under established EMSA conditions, miR-21 resolves as two bands, a lower band corresponding to both unbound single strands and a higher, more distinct band (ca. 20 bp) corresponding to the miR-21 duplex (FIG. 2a). […] With reference to wt33, the most prominent elevated band (ca. 30 bp) likely corresponds to a 1:1 peptide/dsRNA complex while the upper band may represent a higher order structure. The reduction in ds and ssRNA band intensity is likely a result of these binding events.
Additionally, EMSA experiments were performed where dsRNA was incubated with either peptide 1^∘∘1 or 2^∘∘2 in the presence or absence TCEP. […] Having verified the tuneable, dsRNA-binding abilities of our peptide dimers, their use a cellular siRNA delivery tools was confirmed.
Electrophoretic mobility shift assays (EMSA's) were performed using a Bio-Rad MiniProtean gel system paired with a direct current (DC) power source (PowerPac™ HC, BioRad). Typically, 6 μL solutions containing RNA (concentration=3 μM) and peptide (concentration=6 μM) were incubated for 1 h at RT in a binding buffer (1×TAE and 10% glycerol). For gels monitoring disulfide reduction, peptide/RNA solutions were incubated in increasing concentrations (concentration=6, 60 and 600 μM) of TCEP. After incubation, bound nucleic acid complexes were resolved using 15% and 10% non-denaturing polyacrylamide gels (acrylamide:bis-acrylamide (19:1) in 1×TAE) at 150 V or 120 V in running buffer (1×TAE) at 4° C. for 1.5 hours. […]

HEK293 cells = experiment: Confocal microscopy of Cy5-siRNA uptake in HEK cells; type: cell-based; conditions: HEK293, Cy5-siRNA 1 μM
Protocol: For that purpose, a 21 nt long siRNA comprised of a 19 bp stem and equipped with the far-red fluorescent label, cyanine 5 (Cy5) to monitor RNA internalization (Cy5-siRNA, FIG. 7a) was employed. Initially, HEK293 cells were incubated with Cy5-siRNA (c=1 μM, 37° C., 1 h) before being imaged by confocal fluorescence microscopy. […] To assess the tunability of this effect, Cy5-siRNA/1^∘∘1 or Cy5-siRNA/2^∘∘2 complexes were also pre-treated with the reducing agent dithiothreitol (DTT) in order to promote complex disassembly.
HEK cells were seeded at a density of 40000 cells per well on an 8 well micro-slide (Ibidi), one day before the experiment. They were cultured in DMEM (Thermofisher Scientific), supplemented with 10% Fetal Calf Serum (FCS, PAN Biotech) and glutamax (Life technologies). Before starting the experiment, the peptides and Cy5-labelled siRNA were incubated at a peptide/siRNA ratio of 2:1 (6 μM-3 μM) for 1 h. In case for dithiothreitol (DTT) supplemented experiments, DTT was added to a concentration of 20 mM. The samples were diluted to a final siRNA concentration of 1 μM in serum free DMEM. Cells were washed 1× to remove FCS, and incubated in the siRNA:peptide solution for 1 hour at 37° C. After incubation, cells were washed with the phenol-red free DMEM with HEPES, and imaged. […]

RNA hairpins (HP 1-5) = experiment: EMSA with RNA hairpins (HP 1-5); type: binding; conditions: HP 1-5 c=1 μM, peptide c=4 μM
Protocol: The binding of 2^∘∘2 to a set of five ds RNA hairpins, composed of different, complementary 19 base pair stems bridged via a fixed 6 nucleotide loop (FIG. 8a).
Electrophoretic mobility shift assays (EMSA's) were performed using a Bio-Rad MiniProtean gel system paired with a direct current (DC) power source (PowerPac™ HC, BioRad). […] For gels monitoring disulfide reduction, peptide/RNA solutions were incubated in increasing concentrations (concentration=6, 60 and 600 μM) of TCEP. After incubation, bound nucleic acid complexes were resolved using 15% and 10% non-denaturing polyacrylamide gels (acrylamide:bis-acrylamide (19:1) in 1×TAE) at 150 V or 120 V in running buffer (1×TAE) at 4° C. for 1.5 hours. For nucleic acid visualization, gels were stained using 2 μL of SYBR™ gold nucleic acid gel dye (Invitrogen) in 20 mL of 1×TAE buffer for 15 minutes at RT before being imaged using a Bio-Rad ChemiDoc.

## Ac-KKQAQRKRHKLNRKERGHKSPSEQRRSELWHAR (SEQ ID NO 19); 33-amino acid TAV2b RNA-binding peptide without dimerization motif, comparative positive control [wt33, reference compound]
miR-21 [1]
  melting temperature (Tm) of miR-21 co-incubated with peptide: 58 °C
miR-21 [2]
  stabilizing effect on miR-21 in increasing FBS: considerably smaller
miR-21 [3]
  N-value (peptides per miR-21 duplex): 1.91
  −TΔS (entropic penalty): 9.3 kcal/mol
  Kd: 0.328 µM
miR-21 [4]
  dsRNA binding in EMSA (band shift): smeared elevated band (ca. 50 bp), corresponding to a 2:1, peptide/dsRNA complex

## N-terminal disulfide (S-S) homodimer of stapled XβNQKKQAQRKRHKS5NRKS5R (SEQ ID NO 23) [peptide 2^∘∘2]
HEK293 cells; 37° C., 1 h, versus Cy5-siRNA alone
  cellular uptake of Cy5-siRNA co-incubated with peptide (fluorescence): increase in fluorescence intensity
HEK293 cells; DTT pre-treatment (20 mM)
  cellular uptake of Cy5-siRNA/peptide complex pre-treated with DTT: decrease cellular fluorescence intensities
miR-21 [1]
  melting temperature (Tm) of miR-21 co-incubated with peptide: 60 °C
miR-21 [1]; excess reducing agent, 1 mM TCEP vs no TCEP
  ΔTm, lowering of melting temperature of dsRNA complex by TCEP: 4 °C
miR-21 [2]; 27.5% FBS, room temperature, without peptide fully degraded within 15 minutes
  time miR-21 still detectable in serum in presence of peptide: ≥ 6 h
miR-21 [2]
  stabilizing effect on miR-21 in increasing FBS: residual RNA levels at 20% FBS to be comparable to those at 1% FBS in the absence of peptide
miR-21 [3]
  N-value (peptides per miR-21 duplex): 1.89
  −TΔS (entropic penalty): 5.7 kcal/mol
  Kd: 0.0317 µM
miR-21 [3]; Kd ratio versus wt33
  fold higher affinity than wt33: 10 fold
RNA hairpins (HP 1-5)
  binding to RNA hairpins in EMSA: showed binding to each hairpin
miR-21 [4]; c(ligand)=6 μM, c(TCEP)=6, 60 and 600 μM
  EMSA of dsRNA/peptide complex with increasing TCEP: partial disassembly or unlocking of the dsRNA-peptide complex
miR-21 [4]
  dsRNA binding in EMSA (band shift): comparable band is also observed

Reference: patent US20260209277A1, “COMPOUNDS FOR RNA STABILISATION AND DELIVERY” (STICHTING VU, priority 2022, published 2026)
